Results on 11 compounds are retold here after US5789434A, “Derivatives of substituted 4-biarylbutyric acid as matrix metalloprotease inhibitors” (priority 1995, dated 1998).

In one assay the test system is inflammation. Particulars: R. G. Child et al. 1977; cited from earlier work.
Another assay deals with Femoral Lesion. Put plainly: Inhibition of Cartilage Lesions in a Guinea Pig Model of Osteoarthritis. Type of assay: in vivo. As to conditions: 15 mg/kg oral gavage daily, 33 days, vs vehicle. As for the experimental part:
Pathol. 1987 24, 444-448. Seven of the invention compounds were dissolved at 15 mg/ml in a vehicle of 10 mg/ml Tween 80, 190 mg/ml PEG and 0.44 mg/ml ethanolamine. This concentrate was diluted 1:1 with water before dosing (final concentration 7.5 mg/ml). On the 5th day before surgery, each animal received either a test compound plus vehicle or vehicle only administered by oral gavage each day at 15 mg/kg (2 ml/kg) up to surgery and then for four weeks post surgery (total 33 days of dosing). At the beginning of dosing and twice weekly thereafter the animals were weighed and the dose of the respective compounds or vehicles were calculated and adjusted if necessary. At the conclusion of the study the animals were euthanized by CO2 asphyxiation and their stifles removed, partially dissected and placed in 10% neutral buffered formalin. The extent of lesion development on the femoral head was measured by computer assisted surface area analysis.

The target in assay [1] is T1, MMP-9 (Homo sapiens, UniProt P14780).
T1 construct: from tissue; host or cells: human polymorphonuclear leukocytes (PMN) from whole blood (New York Blood Center), PMA-stimulated supernatant
T1 sequence (P14780 107-707 limits assumed): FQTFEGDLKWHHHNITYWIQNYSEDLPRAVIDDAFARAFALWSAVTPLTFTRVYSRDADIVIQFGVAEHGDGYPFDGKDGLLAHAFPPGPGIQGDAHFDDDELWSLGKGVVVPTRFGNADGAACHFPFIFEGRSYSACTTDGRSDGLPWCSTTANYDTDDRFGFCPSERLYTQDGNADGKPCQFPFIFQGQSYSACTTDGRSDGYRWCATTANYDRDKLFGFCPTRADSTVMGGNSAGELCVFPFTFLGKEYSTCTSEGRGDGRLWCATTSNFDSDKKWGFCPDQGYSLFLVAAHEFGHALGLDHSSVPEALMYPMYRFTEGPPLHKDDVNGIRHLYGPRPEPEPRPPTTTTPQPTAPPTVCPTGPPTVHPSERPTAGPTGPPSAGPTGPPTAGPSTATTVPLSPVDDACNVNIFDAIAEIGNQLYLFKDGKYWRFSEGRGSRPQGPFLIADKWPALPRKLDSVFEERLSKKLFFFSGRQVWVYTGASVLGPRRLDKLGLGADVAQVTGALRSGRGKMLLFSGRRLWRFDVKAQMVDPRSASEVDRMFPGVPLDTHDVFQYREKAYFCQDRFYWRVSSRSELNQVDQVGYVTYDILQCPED
Put plainly: Automated MMP Profiling Assay, MMP-9 fluorogenic. Type of assay: biochemical. As to conditions: 96-well automated, P218.

Assay [2] addresses T2, MMP-2 (Homo sapiens, UniProt P08253).
T2 sequence (P08253 110-660): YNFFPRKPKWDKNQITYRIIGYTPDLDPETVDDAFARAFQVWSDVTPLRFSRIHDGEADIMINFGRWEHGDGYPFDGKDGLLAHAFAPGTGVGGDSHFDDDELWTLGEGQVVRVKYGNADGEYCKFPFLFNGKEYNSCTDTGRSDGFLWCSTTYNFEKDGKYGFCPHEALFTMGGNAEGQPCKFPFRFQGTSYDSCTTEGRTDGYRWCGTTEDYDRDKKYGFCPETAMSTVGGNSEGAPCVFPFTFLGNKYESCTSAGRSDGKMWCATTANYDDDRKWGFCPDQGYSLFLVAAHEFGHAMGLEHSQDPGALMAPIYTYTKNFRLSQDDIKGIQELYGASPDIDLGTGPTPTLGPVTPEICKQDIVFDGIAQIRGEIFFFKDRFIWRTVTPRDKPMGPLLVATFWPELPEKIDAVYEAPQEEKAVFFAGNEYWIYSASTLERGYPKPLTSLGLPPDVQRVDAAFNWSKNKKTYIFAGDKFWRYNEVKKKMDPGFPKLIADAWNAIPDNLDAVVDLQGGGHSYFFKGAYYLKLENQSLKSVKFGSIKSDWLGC
Briefly: Automated MMP Profiling Assay, MMP-2 fluorogenic. As to conditions: 96-well automated, P218; read-out: MMP-2 Fluorogenic IC50 (profiling). The format is biochemical.

The target in the next assay is T3, MMP-3 (Homo sapiens, UniProt P08254).
T3 construct: Truncated Prostromelysin-257 was expressed in a soluble form in E.coli; made in house; host or cells: E. coli
T3 sequence (P08254 100-274 limits assumed): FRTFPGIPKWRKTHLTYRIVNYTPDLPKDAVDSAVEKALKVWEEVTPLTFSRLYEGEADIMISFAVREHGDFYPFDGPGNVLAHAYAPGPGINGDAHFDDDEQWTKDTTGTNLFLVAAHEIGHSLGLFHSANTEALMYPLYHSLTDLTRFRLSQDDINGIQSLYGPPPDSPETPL
Briefly: Automated MMP Profiling Assay, MMP-3 fluorogenic. Type of assay: biochemical. As to conditions: 96-well automated, P218. The text has this: This assay with each invention compound was run with the three enzymes MMP-3, MMP-9 and MMP-2 in parallel as adapted for a 96-well microtitre plate using a Hamilton A® workstation.

A further assay concerns MMP. Put plainly: MMP inhibitory activity, comparison in words. Type of assay: biochemical.
The subject of assay [3] is human ovarian carcinoma xenografts. Particulars: mouse, in vivo; cited from earlier work.
The next assay deals with human colon tumor. Particulars: intraperitoneally; cited from earlier work.
Assay [4] has as its target T1, MMP-9. Briefly: Thiopeptilide MMP-9 Inhibition Assay. Type of assay: biochemical. As to conditions: pH 6.5; x (n) = average of n determinations; read-out: MMP-9: Thiopep. IC50.
The target in assay [5] is T2, MMP-2. Put plainly: Secondary P218 Quenched fluorescence Assay for MMP-2 Inhibition. Type of assay: biochemical. Particulars: P218 substrate, 0.2 nM enzyme; x (n) = average of n determinations; read-out: MMP-2 Fluorogenic IC50.

As usually defined, the IC50 is the point on the concentration scale where inhibition reaches its midpoint.

For the compound `CC(CC(=O)c1ccc(-c2ccccc2)cc1)C(=O)O` (stereo not shown) [XLVIII], the “anti-inflammatory activity (literature)” value with inflammation is “inactive”.
On to `CCN(CC)C(=O)c1cccc(CC[C@@H](CC(=O)c2ccc(-c3ccc(Cl)cc3)cc2)C(=O)O)c1` [Example 145, 4-[4-(4-chlorophenyl)phenyl]-4-oxo-2S-[2-(3-N,N-diethylcarbamoyl)phenyl]butanoic acid], for which the “% Inhibition of Femoral Lesion Surface Area” value (“% Inhibition” below) in the assay on Femoral Lesion is 46.4%. Further, the concentration for half-maximal inhibition (IC50) against MMP-9 [1] worked out at 19 nM; on MMP-2 [2], 2.1 nM; against MMP-3, 7.5 nM.
For `O=C(C[C@H](CCCc1ccccc1)C(=O)O)c1ccc(-c2ccc(OCc3ccccc3)cc2)cc1` [Example 100, 4-[4-(4-benzyloxyphenyl)phenyl]-4-oxo-2S-(3-phenylpropyl)butanoic acid] the same measures were 37.8%, 3220 nM, 14 nM and 17 nM.
On to `O=C(C[C@H](CCN1C(=O)c2ccccc2C1=O)C(=O)O)c1ccc(-c2ccc(Cl)cc2)cc1` [Example 268, 4-[4-(4-chlorophenyl)phenyl]-4-oxo-2S-(2-phthalimidoethyl)butanoic acid], for which the “% Inhibition” value with Femoral Lesion turned out to be 53%. In addition, in the assay with MMP, the “MMP inhibitory activity (in words)” value was “most active”. The IC50 against MMP-9 [1] was 1.15 nM; on MMP-2 [2] it was 0.91 nM; at MMP-3, 5.73 nM.
For `COC(=O)c1ccccc1S[C@H]1CC[C@H](C(=O)c2ccc(-c3ccc(Cl)cc3)cc2)[C@H]1C(=O)O` [Example 299, (1S,2S,5S)-trans-5-[4-(4-chlorophenyl)phenylcarbonyl]-cis-2-(2-methoxycarbonylphenylthio)cyclopentanecarboxylic acid], the “% Inhibition” value in the assay with Femoral Lesion is reported as 28%. Also, the IC50 was found to be 531 nM against MMP-9 [1], 52 nM at MMP-2 [2] and 58 nM against MMP-3.
As for `O=C(O)[C@@H]1[C@@H](C(=O)c2ccc(-c3ccc(Cl)cc3)cc2)CC[C@H]1Sc1ccccc1` [Example 296, (1S,2R,5S)-trans-5-[4-(4-chlorophenyl)phenylcarbonyl]-trans-2-phenylthiocyclopentanecarboxylic acid], the “% Inhibition” value with Femoral Lesion worked out at 31%. Further, the IC50 on MMP-9 [1] came to 111 nM; on MMP-2 [2], 6.4 nM; at MMP-3, 44 nM.
As for `O=C(CC(C(=O)O)c1ccccc1)c1ccc(-c2ccccc2)cc1` (stereo not shown) [XLIV], the “anti-inflammatory activity (literature)” value with inflammation was “inactive”.
For the compound `CNC(=O)[C@H](Cc1ccccc1)NC(=O)[C@H](CC(C)C)[C@H](CSc1cccs1)C(=O)NO` [batimastat], the “survival of mice bearing human ovarian carcinoma xenografts” value in [3] is recorded as “prolongs the survival”. In the assay with human colon tumor, the “human colon tumor growth and spread” value was “inhibits human colon tumor growth and spread”.
Turning to `CCCCCOc1ccc(-c2ccc(C(=O)C[C@H](CCCc3ccccc3)C(=O)O)cc2)cc1` [Example 86, 4-[4-(4-pentyloxyphenyl)phenyl]-4-oxo-2S-(3-phenylpropyl)butanoic acid], in the assay with Femoral Lesion, the “% Inhibition” value is reported as 0%. Besides, the IC50 on MMP-9 [1] turned out to be 442 nM; on MMP-2 [2] it was 12.5 nM; on MMP-3, 51 nM.
`O=C(C[C@H](CSc1ccccc1)C(=O)O)c1ccc(-c2ccc(Cl)cc2)cc1` [Example 197, 4-[4-(4-chlorophenyl)phenyl]-4-oxo-2S-(phenylthiomethyl)butanoic acid]: the IC50 at MMP-9 [4] came out at 197 nM; at MMP-2 [5] it was 26 nM; on MMP-2 [2] it was 22 nM. In addition, the “% Inhibition” value with Femoral Lesion amounted to 18%.
For `O=C(O)CC(C(=O)c1ccc(-c2ccccc2)cc1)c1ccccc1` (stereo not shown) [LXXVII], in the assay with inflammation, the “anti-inflammatory activity (literature)” value was “inactive”.
